The NIST ThermoML archive (doi:10.1016/j.jct.2004.07.031)
± gives the expanded uncertainty stated by the source.

Conditions: 298.15 K; 101.33 kPa; Crystal; PPMS instrument (Quantum Design)

| molar entropy [J/K/mol] | SMILES |
| --- | --- |
| 124.57 ± 5.6 | O=P([O-])([O-])[O-].[Gd+3] [gadolinium orthophosphate] |
| 108.24 ± 4.9 | O=P([O-])([O-])[O-].[La+3] [lanthanum orthophosphate] |
